Experimental data from patent US9681664B2, “Macrocyclic picolinamides as fungicides” (Dow Agrosciences LLC, priority 2012, dated 2017).
Like-named read-outs stand apart in the source and are kept apart here.

Key:
[1] = test system: Puccinia triticina; Synonym: Puccinia recondite f. sp. tritici; assay: Wheat brown rust (PUCCRT) disease control on wheat seedlings; format: in vivo; details: Puccinia triticina, High volume application, 100 ppm
Method: Technical grades of materials were dissolved in acetone, which were then mixed with nine volumes of water containing 110 ppm Triton X-100. The fungicide solutions were applied onto wheat seedlings using an automated booth sprayer to run-off. All sprayed plants were allowed to air dry prior to further handling. All fungicides were evaluated using the aforementioned method for their activity vs. all target diseases. Wheat leaf blotch and brown rust activity were also evaluated using track spray applications, in which case the fungicides were formulated as EC formulations, containing 0.1% Trycol 5941 in the spray solutions. Wheat plants (variety Yuma) were grown from seed in a greenhouse in 50% mineral soil/50% soil-less Metro mix until the first leaf was fully emerged, with 7-10 seedlings per pot. These plants were inoculated with an aqueous spore suspension of Puccinia triticina either prior to or after fungicide treatments. After inoculation the plants were kept in a dark dew room at 22° C. with 100% relative humidity overnight to permit spores to germinate and infect the leaf. The plants were then transferred to a greenhouse set at 24° C. for disease to develop. Fungicide formulation, application and disease assessment followed the procedures as described in the Example A.

[2] = test system: Mycosphaerella graminicola; Anamorph: Septoria tritici; assay: Leaf blotch of wheat (SEPTTR) disease control on wheat seedlings; format: in vivo; details: Zymoseptoria tritici, High volume application, 100 ppm
Method: Technical grades of materials were dissolved in acetone, which were then mixed with nine volumes of water containing 110 ppm Triton X-100. The fungicide solutions were applied onto wheat seedlings using an automated booth sprayer to run-off. All sprayed plants were allowed to air dry prior to further handling. All fungicides were evaluated using the aforementioned method for their activity vs. all target diseases. Wheat leaf blotch and brown rust activity were also evaluated using track spray applications, in which case the fungicides were formulated as EC formulations, containing 0.1% Trycol 5941 in the spray solutions. Wheat plants (variety Yuma) were grown from seed in a greenhouse in 50% mineral soil/50% soil-less Metro mix until the first leaf was fully emerged, with 7-10 seedlings per pot. These plants were inoculated with an aqueous spore suspension of Septoria tritici either prior to or after fungicide treatments. After inoculation the plants were kept in 100% relative humidity (one day in a dark dew chamber followed by two to three days in a lighted dew chamber at 20° C.) to permit spores to germinate and infect the leaf. The plants were then transferred to a greenhouse set at 20° C. for disease to develop. When disease symptoms were fully expressed on the 1st leaves of untreated plants, infection levels were assessed on a scale of 0 to 100 percent disease severity. Percent disease control was calculated using the ratio of disease severity on treated plants relative to untreated plants.

[3] = 24 h, 1 Day Protectant, read-out: PUCCRT 1DP disease control
[4] = 72 h, 3 Day Curative, read-out: PUCCRT 3DC disease control
[5] = 24 h, 1 Day Protectant, read-out: SEPTTR 1DP disease control
[6] = 72 h, 3 Day Curative, read-out: SEPTTR 3DC disease control

| SMILES | pest or weed control at 100 ppm [1, 3] | pest or weed control at 100 ppm [1, 4] | pest or weed control at 100 ppm [2, 5] | pest or weed control at 100 ppm [2, 6] |
| --- | --- | --- | --- | --- |
| COc1ccnc(C(=O)N[C@H]2CCC[C@H](Oc3ccccc3)[C@@H](OC/C=C/C(F)(F)F)[C@H](C)OC2=O)c1OCOC(C)=O [F106] | 80 to 100% | 80 to 100% | 80 to 100% | 80 to 100% |
| COc1ccnc(C(=O)N[C@H]2CCC[C@H](Oc3ccccc3)[C@@H](OCCCC(F)(F)F)[C@H](C)OC2=O)c1OCOC(C)=O [F107] | 80 to 100% | 80 to 100% | 80 to 100% | 80 to 100% |
| COc1ccnc(C(=O)N[C@H]2CCC[C@H](Oc3ccccc3)[C@@H](OCCCC(F)(F)F)[C@H](C)OC2=O)c1OCOC(=O)C(C)C [F108] | 80 to 100% | 80 to 100% | 80 to 100% | 80 to 100% |
| COc1ccnc(C(=O)N[C@H]2CCC[C@H](Oc3ccccc3)[C@@H](OCCCC(F)(F)F)[C@H](C)OC2=O)c1OC(C)=O [F109] | 80 to 100% | 80 to 100% | 80 to 100% | 80 to 100% |
| COCCC(=O)Oc1c(OC)ccnc1C(=O)N[C@H]1CCC[C@H](Oc2ccccc2)[C@@H](OCCCC(F)(F)F)[C@H](C)OC1=O [F110] | 80 to 100% | 80 to 100% | 80 to 100% | 80 to 100% |
| COc1ccnc(C(=O)N[C@H]2CCC[C@H](Oc3ccccc3)[C@@H](OCCCc3ccccc3)[C@H](C)OC2=O)c1O [F111] | 80 to 100% | < 0% | 0 to 80% | 0 to 80% |
| COc1ccnc(C(=O)N[C@H]2CCC[C@H](Oc3ccccc3)[C@@H](OCCCc3ccccc3)[C@H](C)OC2=O)c1OCOC(=O)C(C)C [F112] | 80 to 100% | 80 to 100% | 80 to 100% | 80 to 100% |
| COc1ccnc(C(=O)N[C@H]2CCC[C@H](Oc3ccc(C)cc3)[C@@H](Oc3ccc(C)cc3)[C@H](C)OC2=O)c1O [F113] | 0 to 80% | 0 to 80% | < 0% | 0 to 80% |
| CCCO[C@H]1[C@H](C)OC(=O)[C@@H](NC(=O)c2nccc(OC)c2O)CCC[C@@H]1OCCC [F114] | 80 to 100% | 80 to 100% | 80 to 100% | 80 to 100% |
| COc1ccnc(C(=O)N[C@H]2CCC[C@H](Oc3ccc(C)cc3)[C@@H](Oc3ccc(C)cc3)[C@H](C)OC2=O)c1OCOC(C)=O [F115] | 80 to 100% | 0 to 80% | 80 to 100% | 0 to 80% |
| CCCO[C@H]1[C@H](C)OC(=O)[C@@H](NC(=O)c2nccc(OC)c2OCOC(C)=O)CCC[C@@H]1OCCC [F116] | 80 to 100% | 80 to 100% | 80 to 100% | 80 to 100% |
| COc1ccnc(C(=O)N[C@H]2CCC[C@H](OCC3CC3)[C@@H](OCC3CC3)[C@H](C)OC2=O)c1O [F117] | 80 to 100% | 80 to 100% | < 0% | 80 to 100% |
| CCCO[C@H]1[C@H](C)OC(=O)[C@@H](NC(=O)c2nccc(OC)c2O)CCC[C@@H]1OC1CCCC1 [F118] | 80 to 100% | 80 to 100% | 80 to 100% | 0 to 80% |
| CCCO[C@H]1[C@H](C)OC(=O)[C@@H](NC(=O)c2nccc(OC)c2OCOC(C)=O)CCC[C@@H]1OC1CCCC1 [F121] | 80 to 100% | 80 to 100% | 80 to 100% | 80 to 100% |
| COc1ccnc(C(=O)N[C@H]2CCC[C@H](OC3CCCC3)[C@@H](OCC(C)C)[C@H](C)OC2=O)c1OCOC(C)=O [F122] | 80 to 100% | 80 to 100% | 80 to 100% | 80 to 100% |
